Data set [1] can be described thus: Formulation stability of PPC injectable preparations: property, transparency, particle size, pH. To be noted: for bile acid concentration at which stable injectable preparations can be made: based on PPC 5.0%; for bile acid/PPC molar ratio below which a substantially stable formulation did not occur: PPC 5.0%.
Another data set relates to paw of the rats. Put plainly: Rat paw edema. The class given is in vivo, Sprague Dawley rats. The conditions noted are these: for degree of edema in words: 2 hours after administration, rat paw; for degree of edema, 1 hour after administration / degree of edema, 2 hours after administration / degree of edema, Immediately after administration: 0.1 ml into rat paw. The procedure: (§1) To evaluate the degree of edema, each test compositions described above were injected into the paw of the rats. Specifically, male Sprague Dawley rats (6 weeks old) were purchased and used after one week of adaptation. The rats (body weight: 170˜200 g) were randomly selected and the thickness of the rat paw were measured with a caliper before the administration of the test compositions. In order to observe the edema, 0.1 ml of PBS and the various test compositions were administered to the paws of the rats. Measurements of the […] were performed by a caliper immediately before the injection, immediately after the injection, and 1 or 2 hours after the injection. In addition, when the thickness was measured, the skin lesion of the injection site was observed by photographing the sole of the paw (using a 4×4 cm scale).
The degree of edema was evaluated as 0 to 4 grades.

For another data set, the system named is sole of the rat paws. Description: Measurement of skin lesion (erythema) on rat paw.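 On grade of skin lesion (erythema), 1 hour after administration: grades − to ++++ mean no to extremely severe erythema versus before injection.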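 On grade of skin lesion (erythema), 2 hours after administration: grades − to ++++ mean no to extremely severe erythema versus before injection.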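 On grade of skin lesion (erythema), Immediately after administration: grades − to ++++ mean no to extremely severe erythema versus before injection.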 The class given is in vivo, Sprague Dawley rats. The conditions noted are these: for skin lesion (erythema) in words: 2 hours after administration. The method, then:
as §1
The grades of skin lesion were evaluated as 0 to 4 grades.

The subject of data set [2] is tissues of the injected area (rat paw). Put plainly: H&E staining histological test (inflammation) of injected rat paw. The class given is in vivo, Sprague Dawley rats. The conditions noted are these: for Inflammation (H&E), BA % (w/v) 1.0: bile acid single composition 1.0% (w/v); for Inflammation (H&E), BA % (w/v) 1.0 / Inflammation (H&E), BA % (w/v) 2.5 / Inflammation (H&E), BA % (w/v) 5.0: injected rat paw; for Inflammation (H&E), BA % (w/v) 2.5: bile acid single composition 2.5% (w/v); for Inflammation (H&E), BA % (w/v) 5.0: bile acid single composition 5.0% (w/v); for degree of inflammation (H&E) in words: rats sacrificed at 3 hours, injected paw. The method, then:
The tissues of the injected area were dissected, fixed with 10% formalin, and then the specimen was prepared and images were captured using an optical microscope. The degree of inflammation was evaluated as follows.

[3] abbreviates: bile acid single composition 1.0% (w/v).
Where [4] appears, read: bile acid single composition 2.5% (w/v).
The mark [5] stands for this setting: bile acid single composition 5.0% (w/v).
The mark [6] stands for this setting: bile acid single composition 7.5% (w/v).

Experimental findings from US11298314B2, “Injectable composition for localized fat reduction without pain, edema, and side effects, and method for preparing same” (AMI PHARM CO., LTD., priority 2017, dated 2022) are described below.

Each structure is given as a SMILES string.

Turning to `C[C@H](CCC(=O)O)[C@H]1CC[C@H]2[C@@H]3[C@H](O)C[C@@H]4C[C@H](O)CC[C@]4(C)[C@H]3C[C@H](O)[C@]12C` [CA, (4R)-4-[(3R,5S,7R,8R,9S,10S,12S,13R,14S,17R)-3,7,12-trihydroxy-10,13-dimethyl-2,3,4,5,6,7,8,9,11,12,14,15,16,17-tetradecahydro-1H-cyclopenta[a]phenanthren-17-yl]pentanoic acid], in data set [1], the “bile acid concentration at which stable injectable preparations can be made” value (“bile acid concentration” for short) is at least 2.2%.

For `C[C@H](CCC(=O)O)[C@H]1CC[C@H]2[C@@H]3[C@H](O)C[C@@H]4C[C@H](O)CC[C@]4(C)[C@H]3CC[C@]12C` [CDCA], the “degree of edema in words” value with paw of the rats (listed as CDCA 1.0%) was “Moderate”; in the data set on paw of the rats (listed as CDCA 2.5%), ““severe” and “extremely severe””. Further, the “degree of edema, 1 hour after administration” value in the data set on paw of the rats (setting [3]) is “+++ (severe edema [+++, (the degree of swelling was 40-60% compared to before the injection)])”; in the data set on paw of the rats (setting [4]), “+++ (severe edema [+++, (the degree of swelling was 40-60% compared to before the injection)])”; in the data set on paw of the rats (setting [5]), “++++ (extremely severe edema [++++, (the degree of swelling was 60% or more compared to before the injection)])”; in the data set with paw of the rats (setting [6]), “++++ (extremely severe edema [++++, (the degree of swelling was 60% or more compared to before the injection)])”. The “degree of edema, 2 hours after administration” value was “+++ (severe edema [+++, (the degree of swelling was 40-60% compared to before the injection)])” in the data set with paw of the rats (setting [3]); “++++ (extremely severe edema [++++, (the degree of swelling was 60% or more compared to before the injection)])” in the data set on paw of the rats (setting [4]); “++++ (extremely severe edema [++++, (the degree of swelling was 60% or more compared to before the injection)])” in the data set with paw of the rats (setting [5]); “++++ (extremely severe edema [++++, (the degree of swelling was 60% or more compared to before the injection)])” in the data set with paw of the rats (setting [6]). Also, the “degree of edema, Immediately after administration” value was “++ (moderate edema [++, (the degree of swelling was 20-40% compared to before the injection)])” with paw of the rats (setting [3]); “++ (moderate edema [++, (the degree of swelling was 20-40% compared to before the injection)])” in the data set on paw of the rats (setting [4]); “++ (moderate edema [++, (the degree of swelling was 20-40% compared to before the injection)])” with paw of the rats (setting [5]); “++ (moderate edema [++, (the degree of swelling was 20-40% compared to before the injection)])” with paw of the rats (setting [6]). The “skin lesion (erythema) in words” value in the data set with sole of the rat paws (listed as CDCA 1.0%) is “Moderate”; in the data set with sole of the rat paws (listed as CDCA 2.5%), ““severe” and “extremely severe””. Besides, the “grade of skin lesion (erythema), 1 hour after administration” value with sole of the rat paws (setting [3]) is reported as “++”; in the data set on sole of the rat paws (setting [4]), “++++”; with sole of the rat paws (setting [5]), “++++”; with sole of the rat paws (setting [6]) it was “++++”. In addition, the “grade of skin lesion (erythema), 2 hours after administration” value (shortened to “grade of skin lesion (erythema), 2 hours”) in the data set with sole of the rat paws (setting [3]) was “++”; in the data set with sole of the rat paws (setting [4]), “++++”; in the data set on sole of the rat paws (setting [5]) it was “++++”; with sole of the rat paws (setting [6]) it was “++++”. The “grade of skin lesion (erythema), Immediately after administration” value is “+” in the data set with sole of the rat paws (setting [3]), “++” in the data set on sole of the rat paws (setting [4]), “++” in the data set on sole of the rat paws (setting [5]) and “++” in the data set on sole of the rat paws (setting [6]). In addition, the “Inflammation (H&E), BA % (w/v) 1.0” value in data set [2] was “++”. Moreover, the “Inflammation (H&E), BA % (w/v) 2.5” value in data set [2] is “+++”. Besides, the “Inflammation (H&E), BA % (w/v) 5.0” value in data set [2] was “+++”. In addition, in data set [2], the “degree of inflammation (H&E) in words” value is reported as “Moderate”. Besides, the “bile acid/PPC molar ratio below which a substantially stable formulation did not occur” value in data set [1] was “less than 0.89”. In addition, the “bile acid concentration” value in data set [1] is at least 2.2%.

As to `C[C@H](CCC(=O)NCC(=O)O)[C@H]1CC[C@H]2[C@@H]3CCC4C[C@H](O)CC[C@]4(C)[C@H]3C[C@H](O)[C@]12C` (stereo partly drawn) [GDCA, 2-[[(4R)-4-[(3R,8R,9S,10S,12S,13R,14S,17R)-3,12-dihydroxy-10,13-dimethyl-2,3,4,5,6,7,8,9,11,12,14,15,16,17-tetradecahydro-1H-cyclopenta[a]phenanthren-17-yl]pentanoyl]amino]acetic acid], the “degree of edema in words” value is “moderate” in the data set on paw of the rats (listed as GDCA 1.0%); ““severe” and “extremely severe”” with paw of the rats (listed as GDCA 2.5%). The “degree of edema, 1 hour after administration” value with paw of the rats (setting [3]) is “+++ (severe edema [+++, (the degree of swelling was 40-60% compared to before the injection)])”; with paw of the rats (setting [4]), “+++ (severe edema [+++, (the degree of swelling was 40-60% compared to before the injection)])”; in the data set with paw of the rats (setting [5]), “++++ (extremely severe edema [++++, (the degree of swelling was 60% or more compared to before the injection)])”; in the data set with paw of the rats (setting [6]), “++++ (extremely severe edema [++++, (the degree of swelling was 60% or more compared to before the injection)])”. In addition, the “degree of edema, 2 hours after administration” value in the data set with paw of the rats (setting [3]) was “++ (moderate edema [++, (the degree of swelling was 20-40% compared to before the injection)])”; in the data set on paw of the rats (setting [4]), “+++ (severe edema [+++, (the degree of swelling was 40-60% compared to before the injection)])”; in the data set with paw of the rats (setting [5]) it was “++++ (extremely severe edema [++++, (the degree of swelling was 60% or more compared to before the injection)])”; in the data set with paw of the rats (setting [6]) it was “++++ (extremely severe edema [++++, (the degree of swelling was 60% or more compared to before the injection)])”. The “degree of edema, Immediately after administration” value is “++ (moderate edema [++, (the degree of swelling was 20-40% compared to before the injection)])” in the data set on paw of the rats (setting [3]); “++ (moderate edema [++, (the degree of swelling was 20-40% compared to before the injection)])” in the data set with paw of the rats (setting [4]); “++ (moderate edema [++, (the degree of swelling was 20-40% compared to before the injection)])” in the data set with paw of the rats (setting [5]); “++ (moderate edema [++, (the degree of swelling was 20-40% compared to before the injection)])” with paw of the rats (setting [6]). For the same molecule, the “skin lesion (erythema) in words” value with sole of the rat paws (listed as GDCA 1.0%) is “Moderate”; in the data set with sole of the rat paws (listed as GDCA 2.5%), ““severe” and “extremely severe””. Besides, the “grade of skin lesion (erythema), 1 hour after administration” value with sole of the rat paws (setting [3]) was “++”; in the data set on sole of the rat paws (setting [4]), “++++”; with sole of the rat paws (setting [5]), “++++”; in the data set with sole of the rat paws (setting [6]) it was “++++”. For the same molecule, the “grade of skin lesion (erythema), 2 hours” value in the data set on sole of the rat paws (setting [3]) is “++”; in the data set with sole of the rat paws (setting [4]), “++++”; in the data set on sole of the rat paws (setting [5]), “++++”; in the data set with sole of the rat paws (setting [6]), “++++”. In addition, the “grade of skin lesion (erythema), Immediately after administration” value in the data set with sole of the rat paws (setting [3]), with sole of the rat paws (setting [4]), in the data set on sole of the rat paws (setting [5]) and with sole of the rat paws (setting [6]) was “++” in each case. For the same molecule, the “Inflammation (H&E), BA % (w/v) 1.0” value in data set [2] is given as “++”. The “Inflammation (H&E), BA % (w/v) 2.5” value in data set [2] was “+++”. Also, the “degree of inflammation (H&E) in words” value in data set [2] is listed as “Moderate”. In addition, in data set [1], the “bile acid/PPC molar ratio below which a substantially stable formulation did not occur” value is “less than 0.87”. In data set [1], the “bile acid concentration” value was at least 2.4%.

Regarding `C[C@H](CCC(=O)NCCS(=O)(=O)O)[C@H]1CC[C@H]2[C@@H]3[C@H](O)C[C@@H]4C[C@H](O)CC[C@]4(C)[C@H]3C[C@H](O)[C@]12C` [TCA, 2-[[(4R)-4-[(3R,5S,7R,8R,9S,10S,12S,13R,14S,17R)-3,7,12-trihydroxy-10,13-dimethyl-2,3,4,5,6,7,8,9,11,12,14,15,16,17-tetradecahydro-1H-cyclopenta[a]phenanthren-17-yl]pentanoyl]amino]ethanesulfonic acid], the “grade of skin lesion (erythema), 2 hours” value with sole of the rat paws (setting [3]) is “−”; in the data set on sole of the rat paws (setting [4]) it was “+”; in the data set on sole of the rat paws (setting [5]) it was “+”; in the data set with sole of the rat paws (setting [6]), “++”. The “Inflammation (H&E), BA % (w/v) 1.0” value in data set [2] is listed as “+”. In data set [2], the “Inflammation (H&E), BA % (w/v) 2.5” value is listed as “++”. In data set [2], the “Inflammation (H&E), BA % (w/v) 5.0” value is “++”. The “bile acid concentration” value in data set [1] was at least 2.5%.
